Entries after “also recorded” stand apart in the source; their conditions may differ. Starred links: 1 amine or outer side, 2 acyl side, 3 side chain; linkers in the order of their positions; H or OH if unused. Positions of bridges follow the written chain, without caps; N, C: chain ends. Non-standard residues stand in square brackets, D forms with d. Residues, ends and D or L forms follow the SMILES beside them. Chains are numbered I, II in the order given. Actinocin(9to1) = Cc1c2oc3c(C)ccc(C(=O)[*:1])c3nc-2c(C(=O)[*:2])c(N)c1=O; NMeV = CN[C@H](C(=O)O)C(C)C; Sec = N[C@@H](C[SeH])C(=O)O; Sar = CNCC(=O)O
How the values were obtained:
GPX4-deficient neurons = assay: Survival of neurons with siRNA knockdown of GPX4; type: cell-based, mice or rats; conditions: 50 μM NAC, siGPX4
Excerpt: Knock down of GPX4 was achieved by using lipofectamine RNAimax (Thermo-Fisher) to transfect primary cortical neurons with specific siRNA against GPX4. Three different sequences of siRNA were used separately to validate target specificity as opposed to sequence specificity. Knockdown was validated by mRNA and protein.

[1] = system: GPX4 and other selenoprotein genes; assay: Quantitative PCR of antioxidant/selenoprotein genes in neurons; type: cell-based, mice or rats
Description: (§1) Total RNA was prepared using the NucleoSpin RNA II kit (MACHEREYNAGEL) according to the manufacturer's protocol. Duplex real-time PCR reactions were performed with gene expression assays using 6-carboxyfluorescein-labeled probes (Applied Biosystems) for antioxidant enzymes. All expression levels were normalized to β-actin gene expression levels, which were determined with a VIC-labeled probe (Applied Biosystems). All experiments were performed using a Quant 6 Real-Time PCR System (Applied Biosystems).
(§2) Primary cortical neurons were obtained from either embryonic (E15) CD1 mice or embryonic (E17) Sprague-Dawley rats. Briefly, cortices were dissected, homogenized, and plated in minimum essential medium containing 10% fetal bovine serum (FBS), 5% horse serum, and 1% penicillin/streptomycin in 96-well plates, 6-well plates, or 10-cm dishes. Neurons were maintained at 37° C. with 5% CO2. All experiments were started at 24 hours after plating.

[2] = ICP-MS measurement of selenium levels; design: species or system mouse; conditions: in vitro and in vivo after Se treatment
Description: FIG. 2M is a graph showing inductively coupled mass spectrometry (ICP-MS) measurement of selenium levels normalized to protein concentration in cortical neurons treated with 80 μM hemin and/or Se.
FIG. 5D is a graph showing inductively coupled mass spectrometry (ICP-MS) measurement of selenium levels normalized to protein concentration following ICH and ICH+2.5 μM Se in striatum at 24 h post treatment (n=8).

[3] = system: GPX4 and selenoprotein mRNA in striatum; type: in vivo, mouse; conditions: ICV injection
Description: FIG. 5A is a schematic showing ICV injection of dose dependent Se (1-5 μM) and collection of striatum 6 hours later to extract RNA for quantitative PCR.
Male C57BL/6 mice (8 to 10 weeks of age; Charles River) were anesthetized with isoflurane (2 to 5%) and placed on a stereotaxic frame. During the procedure, the animal's body temperature was maintained at 37° C. with a homeothermic blanket. With a nanomite syringe pump (Harvard Apparatus) and a Hamilton syringe, […] of collagenase (0.075 IU; Sigma) was infused into the right striatum at a flow rate of 0.120 ml/min. Relative to the bregma point, the stereotaxic coordinates of the injection were as follows: lateral, −0.20; anteroposterior, 0.62; and dorsoventral, −0.40. In control animals, […] of saline was infused. The treatment group received sodium selenite (1-5 μM) 2 hours after collagenase infusion directly into the ventricals. The control groups received vehicle (saline) alone. The animals were randomized to sham or ICH groups. The identity of the mice that received vehicle or Se was masked to surgeons who performed the ICH. […]
Total RNA was prepared using the NucleoSpin RNA II kit (MACHEREYNAGEL) according to the manufacturer's protocol. […] All expression levels were normalized to β-actin gene expression levels, which were determined with a VIC-labeled probe (Applied Biosystems). […]

primary cortical neurons [4] = assay: In vitro ICH model: hemin-induced ferroptosis, MTT survival and Live/Dead assay; type: cell-based, mice or rats; conditions: for toxicity / therapeutic window in cultured neurons: in vitro, increasing concentrations
Description: as §2
Cell death was induced in primary cortical neurons and hippocampal HT22 cells by treatment with hemin ([…]; Sigma). For the neuroprotection studies, cells were treated with 80 μM hemin in the presence of sodium selenite (Sigma) diluted in water. Cell viability was analyzed 16 hours after treatment. Cells were rinsed with warm phosphate-buffered saline (PBS) and assessed by MTT assay. The fidelity of MTT assays in measuring viability was verified by calcein-AM/ethidium homodimer-1 staining (Live/Dead assay, Molecular Probes) following the manufacturer's instructions.

primary cortical neurons [5] = assay: Oxidative stress-induced neuronal death: HCA-induced ferroptosis, MTT survival; type: cell-based, mice or rats; conditions: HCA 5 mM, survival at 24 h
Description: as §2
Primary cortical neurons and HT22 cells were exposed to 5 mM HCA (glutamate structural analog) to induce oxidative stress-induced cell death, and sodium selenite (Sigma) was applied in media. 24 hours after treatment with HCA, the cells were rinsed with warm PBS, and cell viability was assessed by MTT assay (Life Technologies) and calcein-AM/ethidium homodimer-1 staining (Live/Dead assay, Molecular Probes).

[6] = system: collagenase mouse model of ICH; assay: Collagenase-induced mouse model of ICH: behavior, fluorojade, immunofluorescence; type: in vivo
Description: Male C57BL/6 mice (8 to 10 weeks of age; Charles River) were anesthetized with isoflurane (2 to 5%) and placed on a stereotaxic frame. During the procedure, the animal's body temperature was maintained at 37° C. with a homeothermic blanket. With a nanomite syringe pump (Harvard Apparatus) and a Hamilton syringe, […] of collagenase (0.075 IU; Sigma) was infused into the right striatum at a flow rate of 0.120 ml/min. Relative to the bregma point, the stereotaxic coordinates of the injection were as follows: lateral, −0.20; anteroposterior, 0.62; and dorsoventral, −0.40. In control animals, […] of saline was infused. […] The control groups received vehicle (saline) alone. The animals were randomized to sham or ICH groups. The identity of the mice that received vehicle or Se was masked to surgeons who performed the ICH. […] Proper postoperative care was taken until the animals recovered completely.
The corner task assessed the integrated sensorimotor function in both stimulation of vibrissae (sensory neglect) and rearing (motor response) (See Schallert et al., Neuropharmacology 39(5): p. 777-87 (2000)). Mice were placed between two cardboard pieces forming a corner with a 30° angle. While maintaining the 30° angle, the boards were gradually moved toward the mouse until the mouse approached the corner, reared upward, and turned 180° to face the open end. The direction (left or right) in which the mouse turned around was recorded for each trial. Ten trials were performed for each mouse. The adhesive tape removal task in mice was performed as previously described. Briefly, adhesive tape was placed on the planter region of the forward paw (right and left) of mice. The time from which the tape was applied to when the mouse successfully removed it was recorded for each paw. A maximum of 300 s for each paw was allowed.
For immunocytochemical experiments in the brain, three control mice with induced unilateral stroke and three selenium-treated mice with induced unilateral stroke were perfusion fixed with 4% PFA in PBS for 15 min. The brains were isolated and postfixed for 1 h in 4% PFA. After cryoprotection in a sucrose gradient, brain sections were cut at 30 μm.
Free-floating brain sections were blocked for 1 h in a PBS solution containing 3% bovine serum (Sigma), and 0.5% Triton X-100 (Biorad). Primary antibodies were diluted in the same solution and applied for 12 h, followed by incubation for 1 h with the appropriate secondary antibody, conjugated to Alexa 488 (1:1000; green fluorescence, Molecular Probes) or Alexa 568 (1:1000; red fluorescence, Molecular Probes). For nuclear labeling, ToPro was added to the mixture (1:15000, far red fluorescence, Invitrogen, T3605). […]

GPX4 mRNA = GPX4 mRNA in organs after intraperitoneal injection of peptides; type: in vivo, mouse; conditions: 12 μg/g intraperitoneal, 24 h
Description: FIG. 69B quantifies GPX4 mRNA levels 24 h following IP injection of SelPep (4-12 μg/g; n=3) in the striatum, cortex, heart or liver.
as §1

[7] = 12 μg/g IP from 2 h post-ICH, daily for 7 days, from day 3, significant by day 14

**Q.** For `CC(=O)N[C@@H](CS)C(=O)O` [NAC, N-acetylcysteine], which “survival of GPX4-deficient neurons” value (GPX4-deficient neurons) is on record?
**A.** The value was “prevents cell death due to GPX4 molecular depletion; also recorded: protected GPX4-deficient neurons; also recorded: prevents cell death due to GPX4 knockdown”.

**Q.** What about the “effect on GPX4 expression” value ([1]; 50 μM NAC) of the same compound?
**A.** Its value is “no effect on GPX4 mRNA levels; also recorded: without affecting GPX4 expression”.

**Q.** Which “selenium levels by ICP-MS” value [2] does the source give for `O=[Se](O)O` [Se, Sodium selenite] here?
**A.** Its value is “significant increases in cellular selenium”.

**Q.** And the “toxicity or death in mice” value ([3]; any concentration (1-5 μM))?
**A.** Its value is “no toxicity or death”.

**Q.** And the “optimal Se concentration for inducing selenoprotein expression” value ([3]; uninjured mice, striatum 6 h later)?
**A.** Its value is 2.5 µM.

**Q.** And the “toxicity / therapeutic window in cultured neurons” value (primary cortical neurons [4])?
**A.** The value was “parabolic dose response with a narrow therapeutic window”.

**Q.** With `CC(C)C[C@H](NC(=O)[C@H](CC(N)=O)NC(=O)[C@H](C[SeH])NC(=O)[C@H](CCCCN)NC(=O)[C@H](C[SeH])NC(=O)[C@H](CCCCN)NC(=O)[C@H](CCCNC(=N)N)NC(=O)[C@H](CCCNC(=N)N)NC(=O)[C@H](CCCNC(=N)N)NC(=O)[C@H](CCC(N)=O)NC(=O)[C@H](CCCNC(=N)N)NC(=O)[C@H](CCCNC(=N)N)NC(=O)[C@H](CCCCN)NC(=O)[C@H](CCCCN)NC(=O)[C@H](CCCNC(=N)N)NC(=O)CNC(=O)[C@@H](N)Cc1ccc(O)cc1)C(=O)N[C@@H](CC(N)=O)C(N)=O` [Tat-SelPep] (H-YGRKKRRQRRRK[Sec]K[Sec]NLN-NH2) as the compound, how does the “protection from HCA-induced ferroptosis” value (primary cortical neurons [5]) read?
**A.** The value was “concentration dependent protection”.

**Q.** What about the “cell death measured by Fluoro-Jade staining” value ([6]; 12 μg/g IP from 2 h post-ICH, daily for 7 days) of the same compound?
**A.** The value was “reduced cell death”.

**Q.** And the sensory neglect task [6, 7]?
**A.** The sensory neglect task was “improved”.

**Q.** What about the spatial neglect task [6, 7] of the same compound?
**A.** Its spatial neglect task is “improved”.

**Q.** What about the “behavior outcomes in animals overexpressing mSp1” value ([6]; AAV8-mSp1 in striatum, 12 μg/g IP, day 14 post-stroke) of the same compound?
**A.** Its value is “fail to demonstrate significant behavior improvements”.

**Q.** And the “GPX4 expression in heart, liver, striatum and cortex” value (GPX4 mRNA)?
**A.** Its value is “induced significant expression of GPX4”.

**Q.** What about the “GPX4, SeIP, TXNRD1, GPX3 and SelK mRNA” value ([1]; 1 μM peptide, 6 h post-treatment) of the same compound?
**A.** The value was “induced significant increases”.

**Q.** And the “single cell analysis of cell viability and death (live/dead)” value (primary cortical neurons [4]; hemin 80 μM, 16 h, 1 μM peptide)?
**A.** Its value is “prevented hemin induced ferroptosis and completely preserved cell bodies and neurites of neurons”.

**Q.** What about the “protection from hemin-induced ferroptosis” value (primary cortical neurons [4]; hemin 80 μM, survival at 16 h, MTT) of the same compound?
**A.** The value was “concentration dependent protection”.

**Q.** And the “toxicity / therapeutic window in cultured neurons” value (primary cortical neurons [4])?
**A.** The value was “wide therapeutic window with no apparent toxicity”.

**Q.** For `Cc1c2oc3c(C)ccc(C(=O)N[C@@H]4C(=O)N[C@H](C(C)C)C(=O)N5CCC[C@H]5C(=O)N(C)CC(=O)N(C)[C@@H](C(C)C)C(=O)O[C@@H]4C)c3nc-2c(C(=O)N[C@@H]2C(=O)N[C@H](C(C)C)C(=O)N3CCC[C@H]3C(=O)N(C)CC(=O)N(C)[C@@H](C(C)C)C(=O)O[C@@H]2C)c(N)c1=O` [actinomycin-D] (I: T[dV]P[Sar][NMeV] / II: T[dV]P[Sar][NMeV]; ester I:1-I:C, II:1-II:C; linker I:N-II:N via Actinocin(9to1)), which “Se-dependent increase in GPX4 mRNA” value ([1]; co-treatment with transcription inhibitor) is on record?
**A.** Its value is “inhibited Se-dependent increase in GPX4 mRNA”.

**Q.** What about the “protection against hemin toxicity induced by Se” value (primary cortical neurons [4]; co-treatment with transcription inhibitor, MTT) of the same compound?
**A.** The value was “abrogated protection; also recorded: abolished protection against hemin toxicity”.
